Experimental data taken from the NIST ThermoML archive (doi:10.1021/acs.jced.7b00712).

Conditions: Brillouin light scattering

CCCCCCCC [octane]
Conditions | speed of sound [m/s]
573.03 K, 7000 kPa, Liquid | 341
573.05 K, 4000 kPa, Fluid (supercritical or subcritical phases) | 228.1
573.37 K, 10000 kPa, Liquid | 414
573.6 K, 12000 kPa, Liquid | 454.4
573.69 K, 3500 kPa, Fluid (supercritical or subcritical phases) | 189
573.8 K, 3000 kPa, Fluid (supercritical or subcritical phases) | 135.4
573.9 K, 4500 kPa, Fluid (supercritical or subcritical phases) | 250.4
575.02 K, 4000 kPa, Fluid (supercritical or subcritical phases) | 217.1
575.57 K, 7000 kPa, Liquid | 332.6
576.28 K, 10000 kPa, Liquid | 408.7
576.53 K, 12000 kPa, Liquid | 451.3
577.56 K, 3000 kPa, Fluid (supercritical or subcritical phases) | 110.1
577.56 K, 4500 kPa, Fluid (supercritical or subcritical phases) | 236.5
577.86 K, 3500 kPa, Fluid (supercritical or subcritical phases) | 168.5
578.92 K, 7000 kPa, Liquid | 323.1
579.05 K, 4000 kPa, Fluid (supercritical or subcritical phases) | 198.3
579.36 K, 10000 kPa, Liquid | 400.8
579.57 K, 12000 kPa, Liquid | 444.1
582.19 K, 3000 kPa, Fluid (supercritical or subcritical phases) | 86.9
582.61 K, 3500 kPa, Fluid (supercritical or subcritical phases) | 144.9
583.28 K, 4500 kPa, Fluid (supercritical or subcritical phases) | 215.8
583.76 K, 4000 kPa, Fluid (supercritical or subcritical phases) | 181
584.07 K, 5000 kPa, Fluid (supercritical or subcritical phases) | 239.2
584.52 K, 6000 kPa, Fluid (supercritical or subcritical phases) | 280.5
584.97 K, 7000 kPa, Fluid (supercritical or subcritical phases) | 314.5
585.27 K, 8000 kPa, Fluid (supercritical or subcritical phases) | 351.8
585.51 K, 9000 kPa, Fluid (supercritical or subcritical phases) | 367.9
585.79 K, 10000 kPa, Fluid (supercritical or subcritical phases) | 392.1
585.88 K, 3000 kPa, Fluid (supercritical or subcritical phases) | 88.4
586.85 K, 3500 kPa, Fluid (supercritical or subcritical phases) | 124.2
587.72 K, 4500 kPa, Fluid (supercritical or subcritical phases) | 200.5
588.01 K, 4000 kPa, Fluid (supercritical or subcritical phases) | 166.2
588.39 K, 5000 kPa, Fluid (supercritical or subcritical phases) | 226.1
588.83 K, 6000 kPa, Fluid (supercritical or subcritical phases) | 270.2
589.14 K, 7000 kPa, Fluid (supercritical or subcritical phases) | 302.3
589.41 K, 8000 kPa, Fluid (supercritical or subcritical phases) | 337
589.67 K, 9000 kPa, Fluid (supercritical or subcritical phases) | 358.4
589.68 K, 3000 kPa, Fluid (supercritical or subcritical phases) | 93.7
589.93 K, 10000 kPa, Fluid (supercritical or subcritical phases) | 385.1
591.09 K, 3500 kPa, Fluid (supercritical or subcritical phases) | 108.6
591.69 K, 4500 kPa, Fluid (supercritical or subcritical phases) | 186.7
593.97 K, 5000 kPa, Fluid (supercritical or subcritical phases) | 206.7
594.05 K, 4000 kPa, Fluid (supercritical or subcritical phases) | 140.2
594.09 K, 6000 kPa, Fluid (supercritical or subcritical phases) | 255.1
594.28 K, 7000 kPa, Fluid (supercritical or subcritical phases) | 290.8
594.52 K, 8000 kPa, Fluid (supercritical or subcritical phases) | 322.3
594.74 K, 9000 kPa, Fluid (supercritical or subcritical phases) | 346.5
594.9 K, 3000 kPa, Fluid (supercritical or subcritical phases) | 102.1
594.94 K, 10000 kPa, Fluid (supercritical or subcritical phases) | 374.1
596.02 K, 3500 kPa, Fluid (supercritical or subcritical phases) | 100.7
597.28 K, 4500 kPa, Fluid (supercritical or subcritical phases) | 170.5
598.63 K, 4000 kPa, Fluid (supercritical or subcritical phases) | 125.5
599.12 K, 3000 kPa, Fluid (supercritical or subcritical phases) | 108.9
599.17 K, 5000 kPa, Fluid (supercritical or subcritical phases) | 192.7
599.18 K, 6000 kPa, Fluid (supercritical or subcritical phases) | 241.2
599.55 K, 7000 kPa, Fluid (supercritical or subcritical phases) | 276.6
599.72 K, 8000 kPa, Fluid (supercritical or subcritical phases) | 309.6
599.76 K, 3500 kPa, Fluid (supercritical or subcritical phases) | 95.6
600 K, 9000 kPa, Fluid (supercritical or subcritical phases) | 334
601 K, 10000 kPa, Fluid (supercritical or subcritical phases) | 358.1
601.1 K, 4500 kPa, Fluid (supercritical or subcritical phases) | 159.7
602.47 K, 4000 kPa, Fluid (supercritical or subcritical phases) | 114.3
603.01 K, 5000 kPa, Fluid (supercritical or subcritical phases) | 180.4
603.24 K, 6000 kPa, Fluid (supercritical or subcritical phases) | 226.2
